Here are results for 42 compounds from BindingDB's records for doi:10.1021/jm00381a005 (1985).

A short description of this assay: Inhibitory activity against thromboxane B2 formation (TXA2 synthase) by incubating prostaglandin H2 (PGH-2) with horse platelet microsomes.
In turn, `CC(C)(CCC/C=C(/c1ccccc1)c1cccnc1)C(=O)O` [2,2-Dimethyl-7-phenyl-7-pyridin-3-yl-hept-6-enoic acid] yielded an IC50 of 30 nM.

`CC(C)(CCC/C=C(\c1ccccc1)c1cccnc1)C(=O)O` [2,2-Dimethyl-7-phenyl-7-pyridin-3-yl-hept-6-enoic acid] came in with an IC50 of 21 nM. Consider `CC(C)(CCCC/C=C(/c1ccccc1)c1cccnc1)C(=O)O` [2,2-Dimethyl-8-phenyl-8-pyridin-3-yl-oct-7-enoic acid], for which the IC50 amounted to 38 nM.

On to `CC(C)(CCCC/C=C(\c1ccccc1)c1cccnc1)C(=O)O` [2,2-Dimethyl-8-phenyl-8-pyridin-3-yl-oct-7-enoic acid], for which 45 nM corresponded to half-maximal inhibition (IC50). In the case of `CC(C)(O)C(CCC/C=C(\c1ccccc1)c1cccnc1)C(=O)O` (configuration not stated) [2-(1-Hydroxy-1-methyl-ethyl)-7-phenyl-7-pyridin-3-yl-hept-6-enoic acid], inhibition was half-maximal at 42 nM (IC50). Turning to `O=C(O)C(CCC/C=C(\c1ccccc1)c1cccnc1)C1(O)CCCC1` (configuration not stated) [2-(1-Hydroxy-cyclopentyl)-7-phenyl-7-pyridin-3-yl-hept-6-enoic acid], the IC50 is 65 nM. `C=CCC(CCC/C=C(\c1ccccc1)c1cccnc1)C(=O)O` (configuration not stated) [2-Allyl-7-phenyl-7-pyridin-3-yl-hept-6-enoic acid] had an IC50 of 50 nM. The IC50 values of the last two compounds are within 1.5-fold of each other. The compound `O=C(O)C(CCC/C=C(\c1ccccc1)c1cccnc1)C1=CCCC1` (configuration not stated) [2-Cyclopent-1-enyl-7-phenyl-7-pyridin-3-yl-hept-6-enoic acid] displayed an IC50 of 60 nM. The compound `CC(C)CSC(CCC/C=C(\c1ccccc1)c1cccnc1)C(=O)O` (configuration not stated) [2-Isobutylsulfanyl-7-phenyl-7-pyridin-3-yl-hept-6-enoic acid] returned an IC50 of 110 nM.

Compound `C=C(C)C(CCC/C=C(\c1ccccc1)c1cccnc1)C(=O)O` (configuration not stated) [2-Isopropenyl-7-phenyl-7-pyridin-3-yl-hept-6-enoic acid] returned an IC50 of 28 nM. Compound `COCC(CCC/C=C(\c1ccccc1)c1cccnc1)C(=O)O` (configuration not stated) [2-Methoxymethyl-7-phenyl-7-pyridin-3-yl-hept-6-enoic acid] returned an IC50 of 41 nM.

Compound `CSC(CCC/C=C(\c1ccccc1)c1cccnc1)C(=O)O` (configuration not stated) [2-Methylsulfanyl-7-phenyl-7-pyridin-3-yl-hept-6-enoic acid] gave an IC50 of 30 nM. The IC50 values of the last two compounds are within 1.5-fold of each other. For the compound `O=C(O)C(CCC/C=C(/c1cccnc1)c1cccs1)c1ccccc1` (configuration not stated) [2-Phenyl-7-pyridin-3-yl-7-thiophen-2-yl-hept-6-enoic acid], the IC50 worked out at 50 nM. On to `O=C(O)C(CCC/C=C(\c1cccnc1)c1cccs1)c1ccccc1` (configuration not stated) [2-Phenyl-7-pyridin-3-yl-7-thiophen-2-yl-hept-6-enoic acid], for which half-maximal inhibition (IC50) was put at 32 nM. This IC50 is about 1.6-fold lower than that of the compound before.

The compound `O=C(O)CCC/C=C(/c1ccccc1)c1cccnc1` [6-Phenyl-6-pyridin-3-yl-hex-5-enoic acid] had an IC50 of 280 nM. `O=C(O)CCC/C=C(\c1ccccc1)c1cccnc1` [6-Phenyl-6-pyridin-3-yl-hex-5-enoic acid] registered an IC50 of 30 nM.

Consider `O=C(O)CCCC/C=C(\c1ccccc1)c1ccc[n+]([O-])c1` [7-(1-Oxy-pyridin-3-yl)-7-phenyl-hept-6-enoic acid], for which the IC50 was above 10000 nM. To `O=C(O)CCCC/C=C(\c1cccnc1)c1ccccc1Br` [7-(2-Bromo-phenyl)-7-pyridin-3-yl-hept-6-enoic acid] belongs 130 nM; to `O=C(O)CCCC/C=C(\c1cccnc1)c1cccc(Br)c1` [7-(3-Bromo-phenyl)-7-pyridin-3-yl-hept-6-enoic acid], 180 nM. Take `O=C(O)CCCC/C=C(\c1cccnc1)c1cccc(F)c1` [7-(3-Fluoro-phenyl)-7-pyridin-3-yl-hept-6-enoic acid]: half-maximal inhibition (IC50) was put at 55 nM. Compared with the last compound, the IC50 is about 3.3-fold lower.

With `Cc1ccsc1/C(=C/CCCCC(=O)O)c1cccnc1` [7-(3-Methyl-thiophen-2-yl)-7-pyridin-3-yl-hept-6-enoic acid], the midpoint of inhibition, the IC50, lay at 29 nM. Against the preceding compound, the IC50 is about 1.9-fold lower. Regarding `O=C(O)CCCC/C=C(\c1cccnc1)c1cccc([N+](=O)[O-])c1` [7-(3-Nitro-phenyl)-7-pyridin-3-yl-hept-6-enoic acid], the IC50 turned out to be 73 nM. Compared with the last compound, the IC50 is about 2.5-fold higher.

Compound `O=C(O)CCCC/C=C(/c1ccc(Br)cc1)c1cccnc1` [7-(4-Bromo-phenyl)-7-pyridin-3-yl-hept-6-enoic acid] displayed an IC50 of 82 nM. The compound `O=C(O)CCCC/C=C(/c1ccc(F)cc1)c1cccnc1` [7-(4-Fluoro-phenyl)-7-pyridin-3-yl-hept-6-enoic acid] came in with an IC50 of 83 nM. The IC50 values of the last two compounds are within 1.5-fold of each other. The compound `COc1ccc(/C(=C/CCCCC(=O)O)c2cccnc2)cc1` [7-(4-Methoxy-phenyl)-7-pyridin-3-yl-hept-6-enoic acid] gave an IC50 of 80 nM. As to `O=C(O)C(CCC/C=C(\c1ccccc1)c1cccnc1)Sc1ccccc1` (configuration not stated) [7-Phenyl-2-phenylsulfanyl-7-pyridin-3-yl-hept-6-enoic acid], the IC50 amounted to 33 nM. `O=C(O)CCCC/C=C(/c1ccccc1)c1ccccn1` [7-Phenyl-7-pyridin-2-yl-hept-6-enoic acid]: the IC50 was above 100000 nM.

As for `NC(=O)CCCC/C=C(\c1ccccc1)c1cccnc1` [7-Phenyl-7-pyridin-3-yl-hept-6-enoic acid amide], the IC50 worked out at 400 nM. In turn, `CCOC(=O)CCCC/C=C(\c1ccccc1)c1cccnc1` [7-Phenyl-7-pyridin-3-yl-hept-6-enoic acid ethyl ester] registered a 50% inhibitory concentration (IC50) of 600 nM. To `COC(=O)CCCC/C=C(\c1ccccc1)c1cccnc1` [7-Phenyl-7-pyridin-3-yl-hept-6-enoic acid methyl ester] belongs 100 nM; to `O=C(O)CCCCCC(c1ccccc1)c1cccnc1` (configuration not stated) [7-Phenyl-7-pyridin-3-yl-heptanoic acid], 2700 nM. The compound `Cc1ccc(/C(=C/CCCCC(=O)O)c2cccnc2)cc1` [7-Pyridin-3-yl-7-p-tolyl-hept-6-enoic acid] had an IC50 of 85 nM. For `O=C(O)CCCC/C=C(\c1cccnc1)c1cccs1` [7-Pyridin-3-yl-7-thiophen-2-yl-hept-6-enoic acid], the IC50 amounted to 20 nM. Compound `O=C(O)CCCC/C=C(\c1cccnc1)c1ccsc1` [7-Pyridin-3-yl-7-thiophen-3-yl-hept-6-enoic acid] returned an IC50 of 31 nM.

`O=C(O)CCCC/C=C\c1cccnc1` [7-Pyridin-3-yl-hept-6-enoic acid] displayed an IC50 of 250 nM. This IC50 lies about 8.1-fold higher than the previous one. As to `C/C(=C/CCCCC(=O)O)c1cccnc1` [7-Pyridin-3-yl-oct-6-enoic acid], the IC50 was 71 nM. As to `O=C(O)CCCC/C=C(/CCCc1ccccc1)c1cccnc1` [10-Phenyl-7-pyridin-3-yl-dec-6-enoic acid], the midpoint of inhibition, the IC50, lay at 65 nM. This IC50 and that of the compound before are within 1.5-fold of each other. For the compound `O=C(O)CCCCCCCCC/C=C(/c1ccccc1)c1cccnc1` [12-Phenyl-12-pyridin-3-yl-dodec-11-enoic acid], the IC50 was 520 nM.

The compound `O=C(O)CCCCCCCCC/C=C(\c1ccccc1)c1cccnc1` [12-Phenyl-12-pyridin-3-yl-dodec-11-enoic acid] returned an IC50 of 55 nM. Compared with the last compound, the IC50 is about 9.5-fold lower. With `O=C(O)CCCC/C=C(/c1cccnc1)c1cccs1` [(Z)-7-Pyridin-3-yl-7-thiophen-2-yl-hept-6-enoic acid] the figure was 54 nM; with `O=C(O)CCCC/C=C(/c1cccnc1)c1ccsc1` [(Z)-7-Pyridin-3-yl-7-thiophen-3-yl-hept-6-enoic acid], 62 nM.

`C/C(=C\CCCCC(=O)O)c1cccnc1` [(Z)-7-Pyridin-3-yl-oct-6-enoic acid] gave a concentration for half-maximal inhibition (IC50) of 210 nM.

One may read the IC50 as the concentration needed to halve the response being measured.
